Test systems include NCI-H23 lung; NCI/ADR-RES ovarian; 786-0 renal; M14 melanoma; SNB-75 CNS; BT-549 breast; SN12C renal; SR leukemia.
Holding throughout (assay): NCI-60 cell line screen, 48 h

“And” between values parts separate entries of the source, which are not always exact repeats. Equal entries are not always repeated.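 Where inhibition never reached the appropriate level, the endpoint shown equals the highest concentration tested. Otherwise, values were interpolated linearly from a five-concentration, 48-hour dose response in 96-well plates. At the GI50, growth is halved. TGI: concentration producing complete growth inhibition.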

The source of these data is PubChem BioAssay (NCI).

In the case of `Cc1ccc(S(=O)(=O)CC2(Br)CCc3ccccc3C2=O)cc1` (configuration not stated), the TGI in the test with NCI-H23 lung is over 100 µM; in the test on NCI/ADR-RES ovarian it was over 100 µM; in the test on 786-0 renal, over 100 µM; in the test on M14 melanoma it was over 100 µM; in the test on SNB-75 CNS it was 54.9 µM; in the test on BT-549 breast it was 41.1 µM. Further, in the test with SN12C renal, the TGI was over 100 µM.

With `COc1ccc2nc3cc(Cl)ccc3c(Nc3cc(C(C)C)c(O)cc3C)c2c1`, the GI50 in the test on NCI-H23 lung is 2.2 µM; in the test with SR leukemia, 0.703 µM; in the test on NCI/ADR-RES ovarian, 2.76 µM; with 786-0 renal, 1.64 µM; in the test on M14 melanoma, 1.74 µM; with SNB-75 CNS it was 2.16 µM. Also, the GI50 with BT-549 breast was 0.588 µM; in the test on SN12C renal it was 2.55 µM. Further, the TGI with NCI-H23 lung was 6.02 µM; in the test on SR leukemia, 12 µM; in the test with NCI/ADR-RES ovarian, 8.01 µM; in the test on 786-0 renal, 3.05 µM; in the test on M14 melanoma, 3.31 µM; in the test on SNB-75 CNS, 7.61 µM. The TGI with BT-549 breast was determined as 2.89 µM; in the test with SN12C renal, 7.42 µM.

Take `CN1CCN(c2ccc(Nc3ncc4cc5n(c4n3)C3(CCCCC3)CNC5=O)nc2)CC1`: the GI50 was 2.19 µM in the test on NCI-H23 lung; 0.307 µM in the test on SR leukemia; 5.77 µM with NCI/ADR-RES ovarian; 1.53 µM in the test with 786-0 renal; 1.76 µM in the test with M14 melanoma; 1.41 µM in the test with SNB-75 CNS. In addition, the GI50 in the test with BT-549 breast is 3.35 µM; in the test on SN12C renal it was 1.5 µM. The TGI with NCI-H23 lung amounted to 15.7 µM; in the test with SR leukemia, 3.28 µM; with NCI/ADR-RES ovarian it was 26 µM; in the test with 786-0 renal, 17 µM; with M14 melanoma, 11.7 µM; with SNB-75 CNS, 4.54 µM. Moreover, the TGI in the test with BT-549 breast was found to be 8.97 µM; in the test with SN12C renal, 12.2 µM.

`Cc1[nH]n(-c2cccc(Cl)c2)c(=O)c1/C=C1\C=c2ccccc2=CC1=O`: the GI50 is 48 µM in the test with NCI-H23 lung; over 100 µM in the test on NCI/ADR-RES ovarian; 21.5 µM with 786-0 renal; over 100 µM in the test on M14 melanoma; 0.927 µM in the test with SNB-75 CNS; 27.3 µM in the test on BT-549 breast. For the same compound, the GI50 in the test with SN12C renal was over 100 µM. Besides, the TGI with NCI-H23 lung is over 100 µM; in the test on NCI/ADR-RES ovarian, over 100 µM; in the test on 786-0 renal it was 86.6 µM; with M14 melanoma it was over 100 µM; with SNB-75 CNS it was 32.7 µM; with BT-549 breast it was over 100 µM. In addition, the TGI in the test on SN12C renal was over 100 µM.

On to `COc1cc(/C=C/c2cc(O)c(C/C=C(\C)CC/C=C(\C)CO)c(O)c2)cc2c1O[C@]1(C)CC[C@@H](O)C(C)(C)[C@H]1C2`, for which the GI50 in the test with NCI-H23 lung was 4.93 µM and 20.5 µM; with 786-0 renal it was 0.0172 µM and 0.13 µM; with M14 melanoma it was 0.486 µM and 3.68 µM; with SNB-75 CNS it was 55 µM; with BT-549 breast it was 4.14 µM. In addition, the TGI with NCI-H23 lung was over 93.7 µM; in the test with NCI/ADR-RES ovarian, over 100 µM; in the test with M14 melanoma, 3.72 µM and 19 µM; in the test on SNB-75 CNS it was over 100 µM; in the test on BT-549 breast, over 54.7 µM; in the test with SN12C renal, over 100 µM.

As to `O=c1c2cc(O)c(O)cc2oc2cc(O)c(C3OC(CO)C(O)C(O)C3O)c(O)c12` (configuration not stated), the TGI in the test on NCI-H23 lung, in the test with SR leukemia, with NCI/ADR-RES ovarian, in the test with 786-0 renal, with M14 melanoma and in the test with SNB-75 CNS was over 100 µM each time. In addition, in the test on BT-549 breast, the TGI is over 100 µM.

With `C#Cc1ccc(-n2c(/C=C/c3ccc4ccccc4c3)nc3ncccc3c2=O)cc1`, the GI50 in the test on NCI-H23 lung was 6.39 µM; in the test with SR leukemia it was 1.4 µM; in the test with NCI/ADR-RES ovarian, 3.29 µM; in the test with 786-0 renal, 4.08 µM; in the test on SNB-75 CNS it was 2.95 µM; in the test on BT-549 breast, 1.98 µM. The GI50 with SN12C renal is 3.29 µM. Further, the TGI in the test on NCI-H23 lung is over 100 µM; in the test with SR leukemia, over 100 µM; in the test with NCI/ADR-RES ovarian, over 100 µM; with 786-0 renal, over 100 µM; in the test with SNB-75 CNS it was over 100 µM; in the test with BT-549 breast, 5.45 µM. This compound had a TGI in the test on SN12C renal of over 100 µM.

On to `O=C1N=C(Nc2nc(-c3csc(NC4=NC(=O)/C(=C\c5ccc(Cl)cc5)S4)n3)cs2)S/C1=C/c1ccc(Cl)cc1`, for which the GI50 was 13.5 µM with NCI-H23 lung; 18.1 µM in the test on NCI/ADR-RES ovarian; 1.6 µM with 786-0 renal; 3.03 µM with M14 melanoma; 7.85 µM in the test on SN12C renal. Also, the TGI in the test with NCI-H23 lung was over 50 µM; in the test on NCI/ADR-RES ovarian it was over 50 µM; in the test with 786-0 renal, 12 µM; in the test on M14 melanoma it was 11.5 µM; with SN12C renal it was 33.7 µM.

Turning to `Cc1c(O)c(Br)c(C)c(O)c1Br` (tested in a mixture with another compound), the TGI in the test with NCI-H23 lung was 4.62 µM; in the test on SR leukemia, 3.28 µM; in the test with NCI/ADR-RES ovarian, over 100 µM; in the test on 786-0 renal, 3.2 µM; in the test with M14 melanoma, 3.1 µM; in the test on SNB-75 CNS, 29.3 µM. In the test with BT-549 breast, this compound returned a TGI of 9.7 µM.

On to `CC1(C)OC(=O)C(=Cc2ccc([N+](=O)[O-])s2)C(=O)O1`, for which the TGI in the test on NCI-H23 lung was 39.1 µM; with SR leukemia, 6.31 µM; in the test with NCI/ADR-RES ovarian, 39.8 µM; in the test with 786-0 renal it was 32.2 µM; in the test with M14 melanoma, 26.5 µM; with BT-549 breast, 26.8 µM. In addition, in the test with SN12C renal, the TGI is 31.6 µM.

With `COC(=O)C1(C)CCCC2(C)c3cc(OC)ccc3C(=O)C(Br)C12` (configuration not stated), the TGI is over 10 µM in the test on NCI-H23 lung; over 10 µM in the test with SR leukemia; over 10 µM in the test on NCI/ADR-RES ovarian; 4.21 µM with 786-0 renal; over 10 µM with M14 melanoma; over 10 µM in the test with BT-549 breast. Moreover, the TGI in the test on SN12C renal was over 10 µM.

In the case of `N=C1C(c2nc3ccccc3s2)=C(O)CN1c1cc(Cl)cc(Cl)c1`, the GI50 is over 100 µM in the test on NCI-H23 lung; over 100 µM with SR leukemia; over 100 µM in the test with NCI/ADR-RES ovarian; 88.7 µM in the test on 786-0 renal; 18.7 µM in the test with SNB-75 CNS; over 100 µM in the test on BT-549 breast. Also, the GI50 in the test with SN12C renal is over 100 µM. The TGI was over 100 µM with NCI-H23 lung; over 100 µM in the test on SR leukemia; over 100 µM in the test with NCI/ADR-RES ovarian; over 100 µM in the test with 786-0 renal; 77.4 µM with SNB-75 CNS; over 100 µM in the test with BT-549 breast. Further, in the test on SN12C renal, the TGI is over 100 µM.

Turning to `COc1cc2c(cc1O)C1CC(CC3CCCCN31)OC(=O)/C=C\c1ccc(O)c-2c1` (configuration not stated), the TGI in the test on NCI-H23 lung is over 100 µM; with NCI/ADR-RES ovarian it was 75.7 µM; in the test on 786-0 renal, over 100 µM; in the test on M14 melanoma, 46.6 µM; in the test with SNB-75 CNS, 34.2 µM; with BT-549 breast, 67.5 µM. The TGI with SN12C renal was over 100 µM.
